Results published in patent US20040185102A1, “Dosage forms comprising a CETP inhibitor and an HMG-CoA reductase inhibitor” (Pfizer Inc, priority 2002, published 2004).

Assays:
[1] = in vitro dissolution test using a microcentrifuge method; type: physicochemical; settings: for AUC / Torcetrapib Concentration: PBS pH 6.5, 37° C.; for Torcetrapib Concentration: 1000 μg/mL if all drug dissolved
Method: The spray-dried solid amorphous dispersion was evaluated in an in vitro dissolution test using a microcentrifuge method. In this test, 7.2 mg of the spray-dried solid amorphous dispersion was placed into a microcentrifuge tube. The tube was placed in a 37° C. sonicating bath, and 1.8 mL phosphate buffered saline (PBS) at pH 6.5 and 290 mOsm/kg was added, resulting in a torcetrapib concentration of 1000 μg/mL if all of the drug had dissolved. The sample was quickly mixed using a vortex mixer for about 60 seconds. The sample was centrifuged at 13,000 G at 37° C. for 1 minute. The resulting supernatant solution was then sampled and diluted 1:6 (by volume with methanol and then analyzed by high-performance liquid chromatography (HPLC). The contents of the tube was mixed on the vortex mixer and allowed to stand undisturbed at 37° C. until the next sample was taken. Samples were collected at 4, 10, 20, 40, 90, and 1200 minutes. The concentrations of drug obtained in these samples are shown in Table 1, which represent the average of duplicate tests.
As a control, an in vitro dissolution test was performed using the procedures described above except that 1.8 mg of crystalline drug was used. […]

aqueous solubility = type: physicochemical

Q: With `CCOC(=O)N1c2ccc(C(F)(F)F)cc2[C@@H](N(Cc2cc(C(F)(F)F)cc(C(F)(F)F)c2)C(=O)OC)C[C@H]1CC` [Crystalline Drug, [2R,4S]-4-[(3,5-bis-trifluoromethyl-benzyl)-methoxycarbonyl-amino]-2-ethyl-6-trifluoromethyl-3,4-dihydro-2H-quinoline-1-carboxylic acid ethyl ester] as the compound, how does the “AUC90 (area under the aqueous concentration versus time curve after 90 minutes)” value ([1]; receptor solution PBS) read?
A: <88 min-μg/mL

Q: What about the “Cmax,90 (maximum concentration of torcetrapib in solution during the first 90 minutes)” value ([1]; receptor solution PBS) of the same compound?
A: <1000 ng/mL

Q: What about the AUC ([1]; time 0 min) of the same compound?
A: 0 min-μg/mL

Q: What about the “Torcetrapib Concentration” value ([1]; time 0 min) of the same compound?
A: 0 µg/mL

Q: What about the AUC ([1]; time 4 min) of the same compound?
A: <2 min-μg/mL

Q: And the “Torcetrapib Concentration” value ([1]; time 4 min)?
A: <1 µg/mL

Q: What about the AUC ([1]; time 10 min) of the same compound?
A: <8 min-μg/mL

Q: And the “Torcetrapib Concentration” value ([1]; time 10 min)?
A: <1 µg/mL

Q: And the AUC ([1]; time 20 min)?
A: <18 min-μg/mL

Q: And the “Torcetrapib Concentration” value ([1]; time 20 min)?
A: <1 µg/mL

Q: What about the AUC ([1]; time 40 min) of the same compound?
A: <38 min-μg/mL

Q: And the “Torcetrapib Concentration” value ([1]; time 40 min)?
A: <1 µg/mL

Q: What about the AUC ([1]; time 90 min) of the same compound?
A: <88 min-μg/mL

Q: What about the “Torcetrapib Concentration” value ([1]; time 90 min) of the same compound?
A: <1 µg/mL

Q: What about the AUC ([1]; time 1200 min) of the same compound?
A: <1,200 min-μg/mL

Q: What about the “Torcetrapib Concentration” value ([1]; time 1200 min) of the same compound?
A: <1 µg/mL

Q: And the solubility (aqueous solubility)?
A: < 0.04 µg/mL
